These are literature values, as cited in US10029019B1, “Method for mitigating osteoporosis using metallic gold cluster molecules” (priority 2017, dated 2018).

Series [1] deals with RANKL-induced NF-κβ activation. To be noted: RAW 264.7 monocytes during osteoclast differentiation.
In another series the test system is BMMs. To be noted: up to 200 μM in BMMs in vitro.

Molecules are shown by their SMILES.

As for `O=C(/C=C/c1ccc(O)c(O)c1)OCCc1ccccc1` [Caffeic Acid Phenethyl Ester (CAPE), Caffeic Acid Phenethyl Ester], the “RANKL-induced NF-κβ activation” value in series [1] is given as “inhibit”.

`[HH]` [Hydrogen molecules]: the “formation of RAW264.7 precursor cells into osteoclasts” value in the series on RAW264.7 cells is given as “inhibit”.

With `[Cl][La]([Cl])[Cl]` [Lanthianum Chloride], the “reduction of gene expression that leads towards osteoclastic differentiation” value with BMMs is reported as 50%.

Take `O=C1c2c(O)cccc2C([C@@H]2O[C@H](CO)[C@@H](O)[C@H](O)[C@H]2O)c2cc(CO)cc(O)c21` (stereo partly shown) [Aloin]: the “formation of RAW264.7 precursor cells into osteoclasts” value in the series on RAW264.7 cells is given as “prevent osteoclast differentiation”.
